For this assay, the target named is PDE1B (Homo sapiens, UniProt Q01064). The assay is described as follows: In vitro HTRF PDE1 inhibition assay (PDE1B). The format is biochemical.
The mark [1] stands for this setting: in vitro PDE1B HTRF Assay, read-out: IC50.

The record followed here is patent US20180044343A1, “BICYCLIC IMIDAZOLO DERIVATIVE” (Sumitomo Dainippon Pharma Co., Ltd., priority 2015, published 2018).

pIC50: −log10 of the molar value. Read-outs that look alike come from different tables or passages of the source.

PDE1B, sequence (Q01064 whole entry): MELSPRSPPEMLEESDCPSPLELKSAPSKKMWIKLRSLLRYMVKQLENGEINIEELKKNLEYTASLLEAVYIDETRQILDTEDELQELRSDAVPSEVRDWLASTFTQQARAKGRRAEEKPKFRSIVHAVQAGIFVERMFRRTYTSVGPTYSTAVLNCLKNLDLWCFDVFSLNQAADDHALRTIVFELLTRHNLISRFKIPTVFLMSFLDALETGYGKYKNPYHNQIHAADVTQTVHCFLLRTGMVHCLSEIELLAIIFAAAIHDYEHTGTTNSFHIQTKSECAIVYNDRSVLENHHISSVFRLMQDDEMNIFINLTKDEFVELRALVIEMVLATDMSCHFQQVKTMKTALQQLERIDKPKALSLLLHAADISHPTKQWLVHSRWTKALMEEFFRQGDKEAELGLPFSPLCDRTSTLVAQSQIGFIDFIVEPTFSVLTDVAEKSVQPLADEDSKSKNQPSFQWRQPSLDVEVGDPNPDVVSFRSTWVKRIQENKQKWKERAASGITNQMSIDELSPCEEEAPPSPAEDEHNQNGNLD
Text: The HTRF PDE1 assay utilized the HTRF (Homogenous Time Resolved Fluorescence) technology, which is based on the competition between unlabeled cyclic nucleotide and cyclic nucleotide labeled with XL665 for the binding to cyclic nucleotide-specific antibody labeled with cryptate. The HTRF signal is thus inversely proportional to the concentration of cyclic nucleotide being measured. Since phosphodiesterases break down cyclic nucleotides, the HTRF signal was used to determine PDE activity.
The Cisbio cGMP HTRF assay kit (Cat no: 62GM2PEC) was utilized. Cyclic GMP was diluted to 200 nM in HTRF assay buffer (1 mM CaCl2, 10 mM MgCl2, 10 mM Tris-HCl, 0.1% BSA, pH 7.4). […] PDE (1A3, 1B or 1C) was diluted to 2× working concentration in HTRF assay buffer with 2 μg/ml Calmodulin, and 10 μl was added to initiate the reaction. The plate was then incubated for 45 minutes at 27° C. d2-Labelled cyclic GMP and anti-cGMP cryptate were diluted in 50 mM phosphate buffer, 0.8 M KF, 1% Triton X100, 0.2% BSA, pH 7.0. Following incubation 10 μl d2-cGMP, then 10 μl anti cGMP cryptate were added to each well and the plate was incubated for 60 minutes at room temperature. The plate was then read on Perkin Elmer EnVision at 2 different FRET readings ex/em 340 nm/665 nm and 340 nm/615 nm.

With `Cc1ccc([C@@H]2CCCN2c2nn3c(C(C)C)ncc3c(=O)n2C)cn1` [Example 217, 3-Methyl-2-[(2S)-2-(6-methylpyridin-3-yl)pyrrolidin-1-yl]-7-(propan-2-yl)imidazo[5,1-f][1,2,4]triazin-4(3H)-one], the pIC50 under setting [1] was 5.00 to 6.00.
Same read-out and setting: with `Cc1ccc(CNc2nn3c(C4CCOCC4)ncc3c(=O)n2C)c(F)c1` [Example 136, 2-[(2-Fluoro-4-methylbenzyl)amino]-3-methyl-7-(tetrahydro-2H-pyran-4-yl)imidazo[5,1-f][1,2,4]triazin-4(3H)-one] the figure was more than 6.00.
For the molecule `CCn1c(NCc2ncccc2F)nn2c(C(C)C)ncc2c1=O` [Example 174], under setting [1], the pIC50 is more than 6.00.
Still for that read-out and setting: the same measure for `Cc1ccc(CCCOc2nn3c(C4CCOCC4)ncc3c(=O)n2C)nc1` [Example 42]: more than 6.00; for `CCn1c(OCCC2CCC(F)(F)CC2)nn2c(C3CCOCC3)ncc2c1=O` [Example 93]: more than 6.00.
The same measure, in the same setting: with `CCn1c(NCCc2ccccn2)nn2c(C(C)C)ncc2c1=O` [Example 177] the figure was more than 6.00.
On the same count and under the same terms, the same measure for `CC(C)Oc1nn2c(C3CCOCC3)ncc2c(=O)n1CC1CCC(F)(F)CC1` [Example 103]: more than 6.00; for `Cn1c(NCc2ccccn2)nn2c(C3CCOCC3)ncc2c1=O` [Example 181]: more than 6.00; for `CC(C)c1ncc2c(=O)n(C)c(NC(C)(C)c3ccccn3)nn12` [Example 162]: 5.00 to 6.00.
`Cn1c(NCc2ccc(Cl)cc2)nn2c(C3CCOCC3)ncc2c1=O` [Example 180]: the pIC50 under setting [1] is more than 6.00.
Turning to `CN(C)CC(=O)N1CCCN(c2nn3c(C4CCOCC4)ncc3c(=O)n2C)CC1` [Example 222, 2-{4-[(Dimethylamino)acetyl]-1,4-diazepan-1-yl}-3-methyl-7-(tetrahydro-2H-pyran-4-yl)imidazo[5,1-f][1,2,4]triazin-4(3H)-one], the negative-log IC50 (pIC50) under setting [1] is 4.00 to 5.00.
The same measure, in the same setting: the same measure for `Cn1c(OCCC2(C(F)(F)F)CC2)nn2c(C3CCOCC3)ncc2c1=O` [Example 282]: more than 6.00.
Turning to `Cn1c(N2CCCCC2)nn2c(C3CCOCC3)ncc2c1=O` [Example 184], the pIC50 under setting [1] was more than 6.00.
Still for that read-out and setting: with `CC(C)c1ncc2c(=O)n(C)c(NC3CCCc4cc(Cl)ccc43)nn12` (centres unmarked) [Example 147] the figure was more than 6.00; with `Cc1ccc([C@@H]2CCCN2c2nn3c(C(C)C)ncc3c(=O)n2C)nc1` [Example 219, 3-Methyl-2-[(2S)-2-(5-methylpyridin-2-yl)pyrrolidin-1-yl]-7-(propan-2-yl)imidazo[5,1-f][1,2,4]triazin-4(3H)-one], more than 6.00.
As to `CN(Cc1nn2c(C3CCCC3)ncc2c(=O)n1C)c1ccc(C(F)(F)F)cc1` [Example 235], the pIC50 under setting [1] is more than 6.00.
`Cc1ccc([C@H]2CCCN2c2nn3c(C(C)C)ncc3c(=O)n2C)cn1` [Example 216, 3-Methyl-2-[(2R)-2-(6-methylpyridin-3-yl)pyrrolidin-1-yl]-7-(propan-2-yl)imidazo[5,1-f][1,2,4]triazin-4(3H)-one] showed a pIC50 of more than 6.00.
Turning to `CCn1c(OCC2CCCC2)nn2c(C3CCOCC3)ncc2c1=O` [Example 88], under setting [1], the pIC50 is more than 6.00.
Take `COc1nn2c(C3CCOCC3)ncc2c(=O)n1Cc1ccc(C#N)cc1` [Example 280]: the pIC50 under setting [1] is 4.00 to 5.00.
As to `CCO[C@H]1CC[C@@H](COc2nn3c(C4CCOCC4)ncc3c(=O)n2CC)CC1` [Example 250], the pIC50 under setting [1] is more than 6.00.
With `Cn1c(OCc2ccc(-c3ccccn3)cc2)nn2c(C3CCOCC3)ncc2c1=O` [Example 44], under setting [1], the pIC50 is more than 6.00.
With `CCn1c(OCc2ccc(-c3ccc(C#N)cc3)cc2)nn2c(C3CCOCC3)ncc2c1=O` [Example 85], the pIC50 under setting [1] is more than 6.00.
Take `CCn1c(OCc2ccc(F)c(F)c2)nn2c(C3CCOCC3)ncc2c1=O` [Example 59]: the pIC50 under setting [1] was more than 6.00.
Same read-out and setting: the same measure for `CCn1c(N2CCCC2)nn2c(C3CCOCC3)ncc2c1=O` [Example 198]: more than 6.00; for `CCCn1c(OCC2CCC(F)(F)CC2)nn2c(C3CCOCC3)ncc2c1=O` [Example 94]: more than 6.00; for `Cn1c(OCc2ccc(-c3ccccc3)cc2)nn2c(C3CCOCC3)ncc2c1=O` [Example 47]: more than 6.00.
For `Cn1c(OC2CCCC2)nn2c(C3CCOCC3)ncc2c1=O` [Example 299], under setting [1], the pIC50 was more than 6.00.
For the molecule `CCO[C@H]1CC[C@H](Oc2nn3c(C4CCOCC4)ncc3c(=O)n2C)CC1` [Example 314], the negative logarithm of the IC50 (pIC50) under setting [1] is more than 6.00.
Consider `Cn1c(N2CCOCC2)nn2c(C3CCOCC3)ncc2c1=O` [Example 185], for which the pIC50 under setting [1] was more than 6.00.
Turning to `COC1CCN(c2nn3c(C4CCOCC4)ncc3c(=O)n2C)CC1` [Example 191], the pIC50 under setting [1] was more than 6.00.
For `CC(C)c1ncc2c(=O)n(C)c(OCCc3ccncc3)nn12` [Example 3, 3-Methyl-7-(propan-2-yl)-2-[2-(pyridin-4-yl)ethoxy]imidazo[5,1-f][1,2,4]triazin-4(3H)-one], the pIC50 under setting [1] was more than 6.00.
Take `CC(C)c1ncc2c(=O)n(C)c(NC3(c4ccccn4)CC3)nn12` [Example 161]: the negative logarithm of the IC50 (pIC50) under setting [1] is more than 6.00.
`O=c1c2cnc(C3CCOCC3)n2nc(N2CCCC2)n1CC1CCCCC1` [Example 213]: the pIC50 under setting [1] was 5.00 to 6.00.
For `Cn1c(OCC2CCOCC2)nn2c(C3CCC3)ncc2c1=O` [Example 111], the negative-log IC50 (pIC50) under setting [1] was more than 6.00.
With `O=c1c2cnc(C3CCOCC3)n2nc(OCc2ccc(F)cc2)n1CC1CC1` [Example 99], the pIC50 under setting [1] is more than 6.00.
As to `CCn1c(NCc2ccc(OC)cn2)nn2c(C(C)C)ncc2c1=O` [Example 172], under setting [1], the pIC50 is more than 6.00.
Take `O=c1c2cnc(C3CCOCC3)n2nc(N2CCCC2)n1CCC(F)(F)F` [Example 209]: the pIC50 under setting [1] was 4.00 to 5.00.
Turning to `O=c1[nH]c(N2CCC[C@@H]2c2ccccc2)nn2c(C3CCOCC3)ncc12` [Example 124, 2-[(2R)-2-phenylpyrrolidin-1-yl]-7-(tetrahydro-2H-pyran-4-yl)imidazo[5,1-f][1,2,4]triazin-4(3H)-one], the pIC50 under setting [1] was more than 6.00.
Consider `COC(C)c1ncc2c(=O)n(C)c(OCC3CCC(F)(F)CC3)nn12` (centres unmarked) [Example 112], for which the pIC50 under setting [1] was more than 6.00.
Take `CCn1c(OC(C)C2CCC(F)(F)CC2)nn2c(C3CCOCC3)ncc2c1=O` (centres unmarked) [Example 92]: under setting [1], the pIC50 was more than 6.00.
Regarding `Cn1c(OCCC2CCC(F)(F)CC2)nn2c(C3CCOCC3)ncc2c1=O` [Example 39], the pIC50 under setting [1] was more than 6.00.
With `CCn1c(OCCc2ccccc2)nn2c(C3CCOCC3)ncc2c1=O` [Example 73], the pIC50 under setting [1] is more than 6.00.
As for `CCn1c(OCCCc2cccnc2)nn2c(C3CCOCC3)ncc2c1=O` [Example 68], the pIC50 under setting [1] was more than 6.00.
As to `Cn1c(N2CCCC2)nn2c(C3CCOCC3)ncc2c1=O` [Example 183], under setting [1], the pIC50 was more than 6.00.
Turning to `CCn1c(OCCCc2ccncc2)nn2c(C3CCOCC3)ncc2c1=O` [Example 61], the pIC50 under setting [1] was more than 6.00.
Same read-out and setting: with `CCn1c(OCCCc2ncccc2C)nn2c(C3CCOCC3)ncc2c1=O` [Example 71] the figure was more than 6.00; with `CCn1c(NCc2ccccn2)nn2c(C(C)C)ncc2c1=O` [Example 169], more than 6.00; with `CCn1c(O[C@H]2CC[C@@H](C(F)(F)F)CC2)nn2c(C3CCOCC3)ncc2c1=O` [Example 308], more than 6.00.
Consider `CN(C)C(=O)CN1CCCN(c2nn3c(C4CCOCC4)ncc3c(=O)n2C)CC1` [Example 197], for which the pIC50 under setting [1] is more than 6.00.
On to `COc1nn2c(C3CCOCC3)nc(C)c2c(=O)n1CC1CCC(F)(F)CC1` [Example 122], for which the negative logarithm of the IC50 (pIC50) under setting [1] is more than 6.00.

As usually defined, the pIC50 is the negative decadic logarithm of the IC50, by convention in mol/L.
